For orientation: IC50 means the concentration that inhibits the measured activity by half.

Read-outs that look alike come from different tables or passages of the source.

These results are taken from patent US20180194762A1 (Pharmacyclics LLC, priority 2017, published 2018).

Holding throughout (type): biochemical
Experiment [1] deals with T1, Btk (Homo sapiens, UniProt Q06187).
T1 construct: purified from insect cells as a full-length construct containing a N-terminal 6X-His tag; His6 (N); made in house; host or cells: insect cells (Method C)
As to the kind of experiment: Btk in vitro inhibitory activity (one of Method A TR-FRET, Method B electrophoretic mobility shift, Method C radiometric filter binding). The method in brief: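 Three alternative formats were used. A radiometric filter-binding read used 8 nM full-length His-BTK with 0.2 mg/mL poly(Glu-Tyr) 4:1 (C); microfluidic separation of 1 μM FAM-peptide by 1 nM BTK gave IC50 from 12-point curves (B); TR-FRET at Km ATP, 0.5 nM Btk, gave Ki(app)-derived IC50 (A).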
Background: In EMSA bound probe runs differently from free probe, usually more slowly.

The target in experiment [2] is T2, TEC (Homo sapiens, UniProt P42680).
T2 sequence (P42680 1-631): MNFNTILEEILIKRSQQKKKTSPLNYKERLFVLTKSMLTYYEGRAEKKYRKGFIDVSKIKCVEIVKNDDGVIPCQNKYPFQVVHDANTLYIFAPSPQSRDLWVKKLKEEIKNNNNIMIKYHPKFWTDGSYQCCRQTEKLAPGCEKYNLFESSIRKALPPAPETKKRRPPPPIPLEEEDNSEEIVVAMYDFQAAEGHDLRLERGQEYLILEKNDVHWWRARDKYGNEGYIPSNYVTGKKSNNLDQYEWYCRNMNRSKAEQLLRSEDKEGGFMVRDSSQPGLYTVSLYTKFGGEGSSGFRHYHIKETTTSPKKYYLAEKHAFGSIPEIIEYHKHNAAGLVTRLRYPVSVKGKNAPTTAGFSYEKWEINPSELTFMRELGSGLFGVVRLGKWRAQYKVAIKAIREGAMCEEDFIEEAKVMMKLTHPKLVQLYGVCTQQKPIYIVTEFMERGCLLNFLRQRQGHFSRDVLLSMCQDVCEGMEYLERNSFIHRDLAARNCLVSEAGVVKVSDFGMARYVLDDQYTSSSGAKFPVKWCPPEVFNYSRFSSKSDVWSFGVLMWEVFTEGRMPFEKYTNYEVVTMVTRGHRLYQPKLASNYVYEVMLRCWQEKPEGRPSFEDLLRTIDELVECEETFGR
As to the kind of experiment: Inhibition of a panel of kinases (in vitro HotSpot kinase assay, 33P-ATP, 1 μM ATP). To be noted: for IC50: HotSpot kinase assay, 1 μM ATP; for TEC/Btk: ratio of TEC IC50 to Btk IC50 (selectivity). The essentials: (§1)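 Radiometric read-out: 33P transfer to a suitable substrate by each purified enzyme, ATP at 1 μM. Values are degree of inhibition.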

In experiment [3] the target is T3, panel of kinases (Homo sapiens, UniProt P51813).
T3 sequence (P51813 1-675): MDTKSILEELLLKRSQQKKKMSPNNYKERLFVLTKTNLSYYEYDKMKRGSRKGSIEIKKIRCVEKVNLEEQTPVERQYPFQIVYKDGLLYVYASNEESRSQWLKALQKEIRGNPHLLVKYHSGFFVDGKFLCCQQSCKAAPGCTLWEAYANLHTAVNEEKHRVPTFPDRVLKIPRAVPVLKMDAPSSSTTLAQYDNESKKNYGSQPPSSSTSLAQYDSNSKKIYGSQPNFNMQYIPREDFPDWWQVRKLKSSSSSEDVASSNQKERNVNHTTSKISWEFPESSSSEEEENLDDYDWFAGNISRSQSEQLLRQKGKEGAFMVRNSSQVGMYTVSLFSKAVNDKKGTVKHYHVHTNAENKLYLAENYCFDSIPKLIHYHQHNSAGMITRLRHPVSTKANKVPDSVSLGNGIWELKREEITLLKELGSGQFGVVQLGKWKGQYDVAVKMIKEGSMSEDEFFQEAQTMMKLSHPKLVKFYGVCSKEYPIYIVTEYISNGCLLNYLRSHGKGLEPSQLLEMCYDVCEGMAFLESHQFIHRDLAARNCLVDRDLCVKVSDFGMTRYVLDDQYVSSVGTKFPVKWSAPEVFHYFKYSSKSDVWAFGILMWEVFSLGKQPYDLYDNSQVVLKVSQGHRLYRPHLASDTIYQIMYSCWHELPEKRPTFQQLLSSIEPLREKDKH
Nature of the experiment: Inhibition of a panel of kinases (in vitro HotSpot kinase assay, 33P-ATP, 1 μM ATP), other kinases. To be noted: BMX wild-type, read-out: BMX-WT IC50. The essentials: as §1

Setting [4] is: method is one of A, B or C, not stated which, read-out: IC50 values against Btk.
The mark [5] stands for this setting: wild-type Btk, read-out: Btk-WT IC50.

T1 sequence (Q06187 whole entry): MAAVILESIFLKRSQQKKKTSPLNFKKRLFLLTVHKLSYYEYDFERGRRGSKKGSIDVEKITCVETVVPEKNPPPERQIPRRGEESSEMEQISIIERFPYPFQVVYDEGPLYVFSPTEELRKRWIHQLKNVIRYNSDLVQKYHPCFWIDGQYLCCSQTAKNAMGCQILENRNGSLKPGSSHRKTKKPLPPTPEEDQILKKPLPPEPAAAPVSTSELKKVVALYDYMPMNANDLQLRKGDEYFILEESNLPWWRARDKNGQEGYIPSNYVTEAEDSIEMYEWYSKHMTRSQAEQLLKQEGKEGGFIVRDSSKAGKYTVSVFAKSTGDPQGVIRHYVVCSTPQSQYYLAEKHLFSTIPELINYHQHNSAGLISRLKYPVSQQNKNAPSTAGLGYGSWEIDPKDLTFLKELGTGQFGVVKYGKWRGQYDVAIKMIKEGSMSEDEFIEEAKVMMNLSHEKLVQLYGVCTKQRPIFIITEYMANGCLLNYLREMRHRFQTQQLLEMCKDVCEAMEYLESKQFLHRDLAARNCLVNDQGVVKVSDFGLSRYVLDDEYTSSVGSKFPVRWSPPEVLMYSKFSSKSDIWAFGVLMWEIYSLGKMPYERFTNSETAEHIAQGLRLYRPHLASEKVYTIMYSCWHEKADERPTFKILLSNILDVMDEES

Consider `C=CC(=O)N1CCC[C@@H](Nc2n[nH]c3nccc(-c4ccc(CNC(=O)c5noc(C(C)(C)C)n5)c(F)c4)c23)C1` [Example 85, 5-tert-butyl-N-{[2-fluoro-4-(3-{[(3R)-1-(prop-2-enoyl)piperidin-3-yl]amino}-1H-pyrazolo[3,4-b]pyridin-4-yl)phenyl]methyl}-1,2,4-oxadiazole-3-carboxamide], for which the concentration for half-maximal inhibition (IC50) in experiment [1] (setting [4]) is less than 0.01 µM; in experiment [1] (setting [5]), 0.00019 µM; in experiment [2] it was 0.11 µM; in experiment [3] it was 0.115 µM. Moreover, in experiment [2], the TEC/Btk worked out at 579.
The matching figures for `C=CC(=O)N1CC[C@@H](Nc2n[nH]c3nccc(-c4ccc(C5(NC(=O)c6nc(C(C)(C)C)no6)CC5)cc4)c23)C1` [Example 86, 3-tert-butyl-N-{1-[4-(3-{[(3R)-1-(prop-2-enoyl)pyrrolidin-3-yl]amino}-1H-pyrazolo[3,4-b]pyridin-4-yl)phenyl]cyclopropyl}-1,2,4-oxadiazole-5-carboxamide]: less than 0.01 µM, 0.000242 µM, 0.213 µM, 0.218 µM and 880.
In the same order, the values of `C=CC(=O)N1CC[C@@H](Nc2n[nH]c3nccc(-c4ccc(CCNC(=O)c5noc(C(C)(C)C)n5)c(F)c4)c23)C1` [Example 87, 5-tert-butyl-N-{2-[2-fluoro-4-(3-{[(3R)-1-(prop-2-enoyl)pyrrolidin-3-yl]amino}-1H-pyrazolo[3,4-b]pyridin-4-yl)phenyl]ethyl}-1,2,4-oxadiazole-3-carboxamide] are less than 0.01 µM, 0.00143 µM, 0.685 µM, 0.276 µM and 479.
On to `C=CC(=O)N1CC[C@@H](Nc2n[nH]c3nccc(-c4cc(F)cc(CNC(=O)c5noc(C(C)(C)C)n5)c4)c23)C1` [Example 88, 5-tert-butyl-N-{[3-fluoro-5-(3-{[(3R)-1-(prop-2-enoyl)pyrrolidin-3-yl]amino}-1H-pyrazolo[3,4-b]pyridin-4-yl)phenyl]methyl}-1,2,4-oxadiazole-3-carboxamide], for which the results for the concentration for half-maximal inhibition (IC50) in experiment [1] (setting [5]), in experiment [2] and in experiment [3] were 0.287 µM, 2.38 µM and 0.713 µM, respectively. In experiment [2], the TEC/Btk is given as 8.
Regarding `C=CC(=O)N1CC[C@@H](Nc2n[nH]c3nccc(-c4cc(F)cc(CNC(=O)c5ccc(C(C)(C)C)cc5)c4)c23)C1` [Example 89, 4-tert-butyl-N-{[3-fluoro-5-(3-{[(3R)-1-(prop-2-enoyl)pyrrolidin-3-yl]amino}-1H-pyrazolo[3,4-b]pyridin-4-yl)phenyl]methyl}benzamide], the half-inhibitory concentration (IC50) was more than 10 µM in experiment [1] (setting [5]), 3.28 µM in experiment [2] and 0.51 µM in experiment [3]. Besides, the TEC/Btk in experiment [2] is more than 100.
`CC(C)(C)c1nc(C(=O)NCc2ccc(-c3ccnc4[nH]nc(N[C@@H]5CCCN(C=O)C5)c34)cc2F)no1` [Example 90, 5-tert-butyl-N-{[2-fluoro-4-(3-{[(3R)-1-formylpiperidin-3-yl]amino}-1H-pyrazolo[3,4-b]pyridin-4-yl)phenyl]methyl}-1,2,4-oxadiazole-3-carboxamide]: the 50% inhibitory concentration (IC50) in experiment [1] (setting [4]) is less than 0.01 µM; in experiment [1] (setting [5]) it was 0.00944 µM; in experiment [2], 2.25 µM; in experiment [3], 2.62 µM. For the same compound, in experiment [2], the TEC/Btk is 238.
Turning to `CC(=O)N1CC[C@H](Nc2n[nH]c3nccc(-c4ccc(CNC(=O)c5noc(C(C)(C)C)n5)c(F)c4)c23)C1` [Example 92, N-{[4-(3-{[(3S)-1-acetylpyrrolidin-3-yl]amino}-1H-pyrazolo[3,4-b]pyridin-4-yl)-2-fluorophenyl]methyl}-5-tert-butyl-1,2,4-oxadiazole-3-carboxamide], the values for the IC50 in experiment [1] (setting [5]), in experiment [2] and in experiment [3] were 0.0137 µM, 6.92 µM and 7.6 µM, respectively. Moreover, the TEC/Btk in experiment [2] was 505.
Regarding `CC(C)(C)c1nc(C(=O)NCc2ccc(-c3ccnc4[nH]nc(N[C@H]5CCN(C=O)C5)c34)cc2F)no1` [Example 93, 5-tert-butyl-N-{[2-fluoro-4-(3-{[(3S)-1-formylpyrrolidin-3-yl]amino}-1H-pyrazolo[3,4-b]pyridin-4-yl)phenyl]methyl}-1,2,4-oxadiazole-3-carboxamide], the IC50 came out at 0.0117 µM in experiment [1] (setting [5]), 3.77 µM in experiment [2] and 3.34 µM in experiment [3]. Moreover, the TEC/Btk in experiment [2] amounted to 322.
The matching figures for `CC1(C(=O)N2CC[C@H](Nc3n[nH]c4nccc(-c5ccc(CNC(=O)c6noc(C(C)(C)C)n6)c(F)c5)c34)C2)COC1` [Example 94, 5-tert-butyl-N-{[2-fluoro-4-(3-{[(3S)-1-(3-methyloxetane-3-carbonyl)pyrrolidin-3-yl]amino}-1H-pyrazolo[3,4-b]pyridin-4-yl)phenyl]methyl}-1,2,4-oxadiazole-3-carboxamide]: 0.0253 µM, more than 10 µM, more than 10 µM and more than 100.
On to `C=CC(=O)N1CC[C@@H](Nc2n[nH]c3nccc(-c4ccc([C@H](C)NC(=O)c5noc(C(C)(C)C)n5)cc4)c23)C1` [Example 95, 5-tert-butyl-N-[(1S)-1-[4-(3-{[(3R)-1-(prop-2-enoyl)pyrrolidin-3-yl]amino}-1H-pyrazolo[3,4-b]pyridin-4-yl)phenyl]ethyl]-1,2,4-oxadiazole-3-carboxamide], for which the 50% inhibitory concentration (IC50) in experiment [1] (setting [5]) stood at 0.0679 µM; in experiment [2] it was 0.924 µM; in experiment [3] it was 0.774 µM. For the same compound, in experiment [2], the TEC/Btk was 14.
In the same order, the values of `C=CC(=O)N1CC[C@@H](Nc2n[nH]c3nccc(-c4ccc([C@H](C)NC(=O)c5ccc(C(C)(C)C)cc5)cc4)c23)C1` [Example 97, 4-tert-butyl-N-[(1S)-1-[4-(3-{[(3R)-1-(prop-2-enoyl)pyrrolidin-3-yl]amino}-1H-pyrazolo[3,4-b]pyridin-4-yl)phenyl]ethyl]benzamide] are 0.309 µM, 1.57 µM, 0.709 µM and 5.
As to `C=CC(=O)N1CC[C@@H](Nc2n[nH]c3nccc(-c4ccc([C@@H](C)NC(=O)c5noc(C(C)(C)C)n5)cc4)c23)C1` [Example 98, 5-tert-butyl-N-[(1R)-1-[4-(3-{[(3R)-1-(prop-2-enoyl)pyrrolidin-3-yl]amino}-1H-pyrazolo[3,4-b]pyridin-4-yl)phenyl]ethyl]-1,2,4-oxadiazole-3-carboxamide], the 50% inhibitory concentration (IC50) in experiment [1] (setting [4]) is less than 0.01 µM; in experiment [1] (setting [5]), 0.000165 µM; in experiment [2], 0.108 µM; in experiment [3] it was 0.239 µM. Besides, the TEC/Btk in experiment [2] turned out to be 652.
`CC(C)(C)c1ccc(C(=O)NCc2ccc(-c3ccnc4[nH]nc(N5CC[C@@H](N)C5)c34)cc2F)cc1` [Example 100, N-[(4-{3-[(3R)-3-aminopyrrolidin-1-yl]-1H-pyrazolo[3,4-b]pyridin-4-yl}-2-fluorophenyl)methyl]-4-tert-butylbenzamide]: the values for the half-maximal inhibitory concentration (IC50) in experiment [1] (setting [5]), in experiment [2] and in experiment [3] were 0.0138 µM, 2.97 µM and 1.89 µM, respectively. In addition, in experiment [2], the TEC/Btk is on record as 215.
Turning to `C=CC(=O)N[C@@H]1CCN(c2n[nH]c3nccc(-c4ccc(CNC(=O)c5ccc(C(C)(C)C)cc5)c(F)c4)c23)C1` [Example 101, 4-tert-butyl-N-[(2-fluoro-4-{3-[(3R)-3-(prop-2-enamido)pyrrolidin-1-yl]-1H-pyrazolo[3,4-b]pyridin-4-yl}phenyl)methyl]benzamide], the IC50 in experiment [1] (setting [4]) is less than 0.01 µM; in experiment [1] (setting [5]), 0.00022 µM; in experiment [2] it was 0.096 µM; in experiment [3], 0.122 µM. Besides, in experiment [2], the TEC/Btk was found to be 434.
